Values of other authors in US11760974B2, “Personalized 3D neural culture system for generating human oligodendrocytes and studying myelination in vitro” (The Board of Trustees of the Leland Stanford Junior …, priority 2017, dated 2023).
Each block holds one compound with its values, some of them ahead of it.

Columns and labels:
[1] = target: T1, Wnt processing and secretion (Porcn) (Homo sapiens, UniProt Q9H237); conditions: cell-free assay
T1 sequence (Q9H237 1-461): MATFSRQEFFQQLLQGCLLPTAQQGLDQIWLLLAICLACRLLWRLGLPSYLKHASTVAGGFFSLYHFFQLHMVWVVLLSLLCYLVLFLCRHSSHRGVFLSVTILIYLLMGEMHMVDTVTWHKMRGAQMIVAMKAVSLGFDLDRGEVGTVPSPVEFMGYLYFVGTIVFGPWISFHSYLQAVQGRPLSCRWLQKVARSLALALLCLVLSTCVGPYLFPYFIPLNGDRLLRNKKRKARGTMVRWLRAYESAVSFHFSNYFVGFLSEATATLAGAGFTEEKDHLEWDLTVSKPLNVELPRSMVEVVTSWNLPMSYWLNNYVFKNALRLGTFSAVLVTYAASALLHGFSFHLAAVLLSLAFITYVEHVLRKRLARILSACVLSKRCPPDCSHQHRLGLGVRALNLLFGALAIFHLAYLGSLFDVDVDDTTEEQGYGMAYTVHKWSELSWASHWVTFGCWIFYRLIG

[2] = tested on: PORCN / Wnt3A-mediated TCF-luciferase activation in HEK293 cells; conditions: read-out: IC50 Wnt3A-mediated activation of TCF-binding site driving luciferase
[3] = tested on: Wnt signaling in TM3 cells (PORCN); conditions: read-out: IC50 Wnt signaling inhibition
[4] = target: T2, Porcn (Homo sapiens, UniProt Q9H237); conditions: read-out: EC50 Porcn inhibitor
T2 sequence (Q9H237 1-461): T1 sequence (Q9H237 1-461)

[5] = target: element-binding protein (CBP) (Homo sapiens, UniProt Q92793)
[6] = tested on: Wnt pathway in L-cells expressing Wnt3A; conditions: read-out: IC50 Wnt pathway inhibition
[7] = target: T3, TNKS2 (Homo sapiens, UniProt Q9H2K2)
T3 sequence (Q9H2K2 1-1166): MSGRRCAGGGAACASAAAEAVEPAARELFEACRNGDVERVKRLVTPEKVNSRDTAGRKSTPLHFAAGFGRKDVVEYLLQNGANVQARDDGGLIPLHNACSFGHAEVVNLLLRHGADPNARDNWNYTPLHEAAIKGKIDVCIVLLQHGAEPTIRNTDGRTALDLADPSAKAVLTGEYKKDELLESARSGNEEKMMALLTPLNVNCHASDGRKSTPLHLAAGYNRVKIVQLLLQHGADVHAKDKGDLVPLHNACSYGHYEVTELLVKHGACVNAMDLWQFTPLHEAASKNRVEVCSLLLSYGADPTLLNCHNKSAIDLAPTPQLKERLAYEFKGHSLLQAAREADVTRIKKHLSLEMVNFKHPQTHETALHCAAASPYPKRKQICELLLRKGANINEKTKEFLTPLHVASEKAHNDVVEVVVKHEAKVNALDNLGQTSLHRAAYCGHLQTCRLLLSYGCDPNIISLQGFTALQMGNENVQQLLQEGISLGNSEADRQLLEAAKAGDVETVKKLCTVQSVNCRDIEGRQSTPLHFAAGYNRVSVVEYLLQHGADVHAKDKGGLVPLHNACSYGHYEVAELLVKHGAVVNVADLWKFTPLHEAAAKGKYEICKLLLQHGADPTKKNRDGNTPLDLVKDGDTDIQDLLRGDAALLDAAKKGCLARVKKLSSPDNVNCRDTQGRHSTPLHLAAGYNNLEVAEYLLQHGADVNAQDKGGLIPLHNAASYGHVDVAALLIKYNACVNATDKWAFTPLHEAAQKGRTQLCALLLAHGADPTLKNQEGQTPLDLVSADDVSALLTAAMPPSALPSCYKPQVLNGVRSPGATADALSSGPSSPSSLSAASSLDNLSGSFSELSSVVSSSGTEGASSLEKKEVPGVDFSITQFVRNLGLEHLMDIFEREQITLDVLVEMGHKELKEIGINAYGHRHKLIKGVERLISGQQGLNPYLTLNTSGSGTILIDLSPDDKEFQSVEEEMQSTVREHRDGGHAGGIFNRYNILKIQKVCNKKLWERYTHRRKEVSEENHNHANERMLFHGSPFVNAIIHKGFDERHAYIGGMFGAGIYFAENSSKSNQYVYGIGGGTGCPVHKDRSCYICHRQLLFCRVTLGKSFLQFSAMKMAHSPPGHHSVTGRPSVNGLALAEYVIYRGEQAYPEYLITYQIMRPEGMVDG

Chain of element-binding protein (CBP) (Q92793 whole entry): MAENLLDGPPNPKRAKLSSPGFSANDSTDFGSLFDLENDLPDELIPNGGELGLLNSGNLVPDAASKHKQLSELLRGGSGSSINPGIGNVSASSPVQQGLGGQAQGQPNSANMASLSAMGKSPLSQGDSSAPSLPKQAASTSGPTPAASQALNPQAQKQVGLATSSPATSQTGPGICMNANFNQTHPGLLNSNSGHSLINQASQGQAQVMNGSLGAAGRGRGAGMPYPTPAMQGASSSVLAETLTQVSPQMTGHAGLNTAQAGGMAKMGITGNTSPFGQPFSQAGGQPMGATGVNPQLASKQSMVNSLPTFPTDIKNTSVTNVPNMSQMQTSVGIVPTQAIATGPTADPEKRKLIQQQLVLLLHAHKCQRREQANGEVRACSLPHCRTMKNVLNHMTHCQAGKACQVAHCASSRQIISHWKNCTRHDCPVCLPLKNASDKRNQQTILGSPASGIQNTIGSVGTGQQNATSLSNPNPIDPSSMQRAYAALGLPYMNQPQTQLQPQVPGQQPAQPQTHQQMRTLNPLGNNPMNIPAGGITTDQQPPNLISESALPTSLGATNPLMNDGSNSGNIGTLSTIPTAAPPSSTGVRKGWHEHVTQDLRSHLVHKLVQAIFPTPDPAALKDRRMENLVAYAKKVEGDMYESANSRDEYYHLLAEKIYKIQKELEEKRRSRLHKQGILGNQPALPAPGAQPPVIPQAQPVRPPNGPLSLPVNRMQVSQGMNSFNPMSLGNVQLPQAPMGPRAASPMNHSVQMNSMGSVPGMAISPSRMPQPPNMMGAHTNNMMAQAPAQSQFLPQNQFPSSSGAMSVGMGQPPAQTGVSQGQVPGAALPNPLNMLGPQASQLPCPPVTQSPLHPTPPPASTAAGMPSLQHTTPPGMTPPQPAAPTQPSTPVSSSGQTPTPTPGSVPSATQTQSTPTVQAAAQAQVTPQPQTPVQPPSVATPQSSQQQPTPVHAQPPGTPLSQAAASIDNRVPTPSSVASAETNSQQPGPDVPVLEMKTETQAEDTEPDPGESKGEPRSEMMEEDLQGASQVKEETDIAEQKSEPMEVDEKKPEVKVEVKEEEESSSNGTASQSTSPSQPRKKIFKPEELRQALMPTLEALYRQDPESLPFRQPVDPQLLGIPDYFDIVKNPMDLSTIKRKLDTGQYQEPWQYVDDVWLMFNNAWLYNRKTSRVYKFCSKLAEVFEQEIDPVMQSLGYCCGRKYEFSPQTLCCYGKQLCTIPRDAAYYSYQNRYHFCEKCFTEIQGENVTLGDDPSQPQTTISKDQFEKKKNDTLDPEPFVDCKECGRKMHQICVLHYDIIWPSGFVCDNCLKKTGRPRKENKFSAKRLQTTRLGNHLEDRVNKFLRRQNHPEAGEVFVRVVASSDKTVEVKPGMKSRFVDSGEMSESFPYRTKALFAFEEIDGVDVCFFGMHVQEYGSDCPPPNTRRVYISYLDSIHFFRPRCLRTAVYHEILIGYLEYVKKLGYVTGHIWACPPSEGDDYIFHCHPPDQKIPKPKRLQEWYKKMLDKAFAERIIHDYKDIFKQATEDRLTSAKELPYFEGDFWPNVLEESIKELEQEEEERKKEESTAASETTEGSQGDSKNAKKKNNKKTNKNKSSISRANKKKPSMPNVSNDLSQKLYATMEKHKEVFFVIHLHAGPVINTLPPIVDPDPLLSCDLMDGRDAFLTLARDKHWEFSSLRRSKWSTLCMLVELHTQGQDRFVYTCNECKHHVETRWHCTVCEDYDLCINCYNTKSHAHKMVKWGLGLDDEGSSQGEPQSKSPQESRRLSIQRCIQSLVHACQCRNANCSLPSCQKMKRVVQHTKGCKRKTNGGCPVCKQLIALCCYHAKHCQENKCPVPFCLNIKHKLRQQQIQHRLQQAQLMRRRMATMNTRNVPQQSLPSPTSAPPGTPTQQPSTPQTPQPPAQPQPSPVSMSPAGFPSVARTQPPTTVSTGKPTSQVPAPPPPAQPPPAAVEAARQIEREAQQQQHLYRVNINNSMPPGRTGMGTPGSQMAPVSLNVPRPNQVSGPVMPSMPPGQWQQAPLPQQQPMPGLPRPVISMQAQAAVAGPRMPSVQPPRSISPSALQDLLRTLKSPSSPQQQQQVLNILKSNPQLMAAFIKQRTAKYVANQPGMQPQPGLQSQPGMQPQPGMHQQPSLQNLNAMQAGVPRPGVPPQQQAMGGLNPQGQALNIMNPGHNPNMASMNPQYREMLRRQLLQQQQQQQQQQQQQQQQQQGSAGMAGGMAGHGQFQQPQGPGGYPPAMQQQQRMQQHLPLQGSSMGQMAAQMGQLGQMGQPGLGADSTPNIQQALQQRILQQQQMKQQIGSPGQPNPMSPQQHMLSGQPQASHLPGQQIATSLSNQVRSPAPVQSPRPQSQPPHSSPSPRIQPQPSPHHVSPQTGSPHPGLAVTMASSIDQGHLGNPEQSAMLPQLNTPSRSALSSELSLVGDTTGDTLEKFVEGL

SMILES: Cc1cc(-c2ccc(CC(=O)Nc3ccc(-c4cccnc4)cc3)cc2)ccn1 [Wnt-C59]
IC50 [2]: 0.074 nM

SMILES: Cc1cc(-c2ncc(CC(=O)Nc3ccc(-c4cnccn4)cn3)cc2C)ccn1 [LGK-974]
IC50 [3]: 0.4 nM

SMILES: O=C(Nc1cccc2cccnc12)c1ccc(N2C(=O)[C@@H]3[C@H](C2=O)[C@@H]2C=C[C@H]3C2)cc1 [IWR-1-endo]
IC50 [6]: 180 nM

SMILES: COc1ccc(-n2c(SCCCN3C(=O)c4cccc5cccc(c45)C3=O)nnc2-c2ccncc2)cc1 [WIKI4]
IC50 [7]: 15 nM

Continued, values first:

IC50 [1]: 27 nM
SMILES: Cc1ccc2nc(NC(=O)CSc3nc4c(c(=O)n3-c3ccccc3)SCC4)sc2c1 [IWP-2]

EC50 [4]: 0.5 nM
SMILES: O=C(CSc1nc2c(c(=O)n1-c1ccccc1)SCC2)Nc1ccc(-c2ccccc2)cn1 [IWP-L6]

IC50 [5]: 3000 nM
SMILES: O=C1[C@H](Cc2ccc(O)cc2)N2C(=O)CCN(C(=O)NCc3ccccc3)[C@H]2CN1Cc1cccc2ccccc12 [ICG-001]
